Results: US20230287021A1, “COMPOUNDS, COMPOSITIONS AND METHODS FOR STABILIZING TRANSTHYRETIN AND INHIBITING TRANSTHYRETIN MISFOLDING” (Protego Biopharma, Inc., priority 2020, published 2023)
Where a name gives a salt, the structure may show the parent alone.

Experiment: In vitro rat liver S9 stability assay, formation of tafamidis
Assay type: in vitro ADME
Conditions: rat liver S9, 37° C., 1 µM test compound
Description: The test compound was added to liver S9 and incubated at 37° C. in a water bath at a concentration of 1 µM. At each time point (0, 5, 10, 20, 30 and 60 min), stop solution (tolbutamide plus labetalol) was added to precipitate protein and mixed thoroughly. After centrifugation, an aliquot of supernatant was analyzed by LC-MS/MS. The percentage of formation of active agent was calculated at each time point.

SMILES	Formation of tafamidis at 60 min
CN(CCF)C(=O)c1ccc2nc(-c3cc(Cl)cc(Cl)c3)oc2c1 [Compound 173]	A (A is <25%)
C[N+]1([O-])CCC(OC(=O)c2ccc3nc(-c4cc(Cl)cc(Cl)c4)oc3c2)C1 (stereo not drawn) [Compound 141, 3-((2-(3,5-dichlorophenyl)benzo[d]oxazole-6-carbonyl)oxy)-1-methylpyrrolidine 1-oxide]	A (A is <25%)
CN1CC(OC(=O)c2ccc3nc(-c4cc(Cl)cc(Cl)c4)oc3c2)C1 [Compound 118]	B (B is ≥25 to <50%)
O=C(OCCCc1ccncc1)c1ccc2nc(-c3cc(Cl)cc(Cl)c3)oc2c1 [Compound 113]	D (D is ≥75%)
O=C(OCc1cccnc1)c1ccc2nc(-c3cc(Cl)cc(Cl)c3)oc2c1 [Compound 107]	D (D is ≥75%)
O=C(OCCc1cccnc1)c1ccc2nc(-c3cc(Cl)cc(Cl)c3)oc2c1 [Compound 108]	D (D is ≥75%)
O=C(OCCc1ccncc1)c1ccc2nc(-c3cc(Cl)cc(Cl)c3)oc2c1 [Compound 110]	C (C is ≥50 to <75%)
CC(Cc1ccncc1)OC(=O)c1ccc2nc(-c3cc(Cl)cc(Cl)c3)oc2c1 (stereo not drawn) [Compound 169]	B (B is ≥25 to <50%)
[2H]C([2H])([2H])N(CCCOC(=O)c1ccc2nc(-c3cc(Cl)cc(Cl)c3)oc2c1)C([2H])([2H])[2H] [Compound 152]	A (A is <25%)
O=C(OC1CCN(C2CC2)C1)c1ccc2nc(-c3cc(Cl)cc(Cl)c3)oc2c1 (stereo not drawn) [Compound 115]	D (D is ≥75%)
Cn1cnc(COC(=O)c2ccc3nc(-c4cc(Cl)cc(Cl)c4)oc3c2)c1 [Compound 129]	D (D is ≥75%)
CN(C)[C@@H]1CC[C@H]1OC(=O)c1ccc2nc(-c3cc(Cl)cc(Cl)c3)oc2c1 [Compound 120]	B (B is ≥25 to <50%)
CN1CC(OC(=O)c2ccc3nc(-c4cc(Cl)cc(Cl)c4)oc3c2)CC(F)(F)C1 (stereo not drawn) [Compound 171, 5,5-difluoro-1-methylpiperidin-3-yl 2-(3,5-dichlorophenyl)benzo[d]oxazole-6-carboxylate]	C (C is ≥50 to <75%)
Cn1nccc1COC(=O)c1ccc2nc(-c3cc(Cl)cc(Cl)c3)oc2c1 [Compound 127]	D (D is ≥75%)
O=C(OC1CCN(CCF)C1)c1ccc2nc(-c3cc(Cl)cc(Cl)c3)oc2c1 (stereo not drawn) [Compound 147]	B (B is ≥25 to <50%)
O=C(OCc1cncnc1)c1ccc2nc(-c3cc(Cl)cc(Cl)c3)oc2c1 [Compound 133]	C (C is ≥50 to <75%)
CN(C)[C@H]1CCC[C@H]1OC(=O)c1ccc2nc(-c3cc(Cl)cc(Cl)c3)oc2c1 [Compound 134]	A (A is <25%)
O=C(OC1CCn2ccnc21)c1ccc2nc(-c3cc(Cl)cc(Cl)c3)oc2c1 (stereo not drawn) [Compound 149]	D (D is ≥75%)
CC(OC(=O)c1ccc2nc(-c3cc(Cl)cc(Cl)c3)oc2c1)c1ncccn1 (stereo not drawn) [Compound 146]	C (C is ≥50 to <75%)
CCN1CCCC1COC(=O)c1ccc2nc(-c3cc(Cl)cc(Cl)c3)oc2c1 (stereo not drawn) [Compound 172]	B (B is ≥25 to <50%)
O=C(OC1CCCn2ccnc21)c1ccc2nc(-c3cc(Cl)cc(Cl)c3)oc2c1 (stereo not drawn) [Compound 155, 5,6,7,8-tetrahydroimidazo[1,2-a]pyridin-8-yl 2-(3,5-dichlorophenyl)benzo[d]oxazole-6-carboxylate]	D (D is ≥75%)
O=C(OC1CCCC1)c1ccc2nc(-c3cc(Cl)cc(Cl)c3)oc2c1 [Compound 184]	B (B is ≥25 to <50%)
O=C(OCCc1ccccc1)c1ccc2nc(-c3cc(Cl)cc(Cl)c3)oc2c1 [Compound 187]	C (C is ≥50 to <75%)
O=C(OCCCc1ncccn1)c1ccc2nc(-c3cc(Cl)cc(Cl)c3)oc2c1 [Compound 148, 3-(pyrimidin-2-yl)propyl 2-(3,5-dichlorophenyl)benzo[d]oxazole-6-carboxylate]	D (D is ≥75%)
CN(CC(F)F)C(=O)c1ccc2nc(-c3cc(Cl)cc(Cl)c3)oc2c1 [Compound 174]	A (A is <25%)
CN1CCCC1CCOC(=O)c1ccc2nc(-c3cc(Cl)cc(Cl)c3)oc2c1 (stereo not drawn) [Compound 122]	A (A is <25%)
O=C(OCc1ccncc1)c1ccc2nc(-c3cc(Cl)cc(Cl)c3)oc2c1 [Compound 109]	C (C is ≥50 to <75%)

SMILES	Formation of tafamidis at 60 min
O=C(OCCCc1ccccn1)c1ccc2nc(-c3cc(Cl)cc(Cl)c3)oc2c1 [Compound 106]	D (D is ≥75%)
O=C(OCc1ccccc1)c1ccc2nc(-c3cc(Cl)cc(Cl)c3)oc2c1 [Compound 186]	D (D is ≥75%)
O=C(OCc1cnccn1)c1ccc2nc(-c3cc(Cl)cc(Cl)c3)oc2c1 [Compound 132]	D (D is ≥75%)
O=C(OCc1ccncn1)c1ccc2nc(-c3cc(Cl)cc(Cl)c3)oc2c1 [Compound 131]	D (D is ≥75%)
O=C(OCC1CCCN1Cc1ccccc1)c1ccc2nc(-c3cc(Cl)cc(Cl)c3)oc2c1 (stereo not drawn) [Compound 165]	C (C is ≥50 to <75%)
CN(C)[C@H]1C[C@H](OC(=O)c2ccc3nc(-c4cc(Cl)cc(Cl)c4)oc3c2)C1 [Compound 125]	A (A is <25%)
CN1CCC(CCOC(=O)c2ccc3nc(-c4cc(Cl)cc(Cl)c4)oc3c2)C1 (stereo not drawn) [Compound 126]	A (A is <25%)
CC[N+]1([O-])CCC(OC(=O)c2ccc3nc(-c4cc(Cl)cc(Cl)c4)oc3c2)C1 (stereo not drawn) [Compound 142]	A (A is <25%)
CN(C)[C@H]1C[C@@H](OC(=O)c2ccc3nc(-c4cc(Cl)cc(Cl)c4)oc3c2)C1 [Compound 121]	A (A is <25%)
O=C(OCCCc1cccnc1)c1ccc2nc(-c3cc(Cl)cc(Cl)c3)oc2c1 [Compound 112]	D (D is ≥75%)
COc1nc(C)c(COC(=O)c2ccc3nc(-c4cc(Cl)cc(Cl)c4)oc3c2)o1 [Compound 114, (2-methoxy-4-methyloxazol-5-yl)methyl 2-(3,5-dichlorophenyl)-benzo [d] oxazole-6-carboxylate]	A (A is <25%)
CN1CCCC1CCCOC(=O)c1ccc2nc(-c3cc(Cl)cc(Cl)c3)oc2c1 (stereo not drawn) [Compound 136]	A (A is <25%)
Cc1ncc2n1CCC2OC(=O)c1ccc2nc(-c3cc(Cl)cc(Cl)c3)oc2c1 (stereo not drawn) [Compound 159, 3-methyl-6,7-dihydro-5H-pyrrolo[1,2-c]imidazol-7-yl 2-(3,5-dichlorophenyl)benzo[d]oxazole-6-carboxylate hydrochloride]	D (D is ≥75%)
O=C(OC1CCCN(Cc2ccccc2)C1)c1ccc2nc(-c3cc(Cl)cc(Cl)c3)oc2c1 (stereo not drawn) [Compound 164]	B (B is ≥25 to <50%)
[2H]C([2H])([2H])N1CCC(OC(=O)c2ccc3nc(-c4cc(Cl)cc(Cl)c4)oc3c2)C1 (stereo not drawn) [Compound 140]	A (A is <25%)
Cn1cncc1COC(=O)c1ccc2nc(-c3cc(Cl)cc(Cl)c3)oc2c1 [Compound 123]	C (C is ≥50 to <75%)
CN1CC(OC(=O)c2ccc3nc(-c4cc(Cl)cc(Cl)c4)oc3c2)CCC1=O (stereo not drawn) [Compound 162]	B (B is ≥25 to <50%)
CC(Cc1cccnc1)OC(=O)c1ccc2nc(-c3cc(Cl)cc(Cl)c3)oc2c1 (stereo not drawn) [Compound 168, 1-(pyridin-3-yl)propan-2-yl 2-(3,5-dichlorophenyl)benzo[d]oxazole-6-carboxylate]	B (B is ≥25 to <50%)
O=C(OCc1cccnn1)c1ccc2nc(-c3cc(Cl)cc(Cl)c3)oc2c1 [Compound 130]	D (D is ≥75%)
CN(C)[C@H]1C[C@@H]1OC(=O)c1ccc2nc(-c3cc(Cl)cc(Cl)c3)oc2c1 (relative stereo) [Compound 154, trans 2-(dimethylamino)cyclopropyl 2-(3,5-dichlorophenyl)benzo-[d]oxazole-6-carboxylate hydrochloride]	C (C is ≥50 to <75%)
CN1CCC(CCCOC(=O)c2ccc3nc(-c4cc(Cl)cc(Cl)c4)oc3c2)C1 (stereo not drawn) [Compound 137]	A (A is <25%)
O=C(OCCc1ccccn1)c1ccc2nc(-c3cc(Cl)cc(Cl)c3)oc2c1 [Compound 105]	D (D is ≥75%)
CC(=O)N1CCC(OC(=O)c2ccc3nc(-c4cc(Cl)cc(Cl)c4)oc3c2)C1 (stereo not drawn) [Compound 138]	A (A is <25%)
Cn1ccc(CCCOC(=O)c2ccc3nc(-c4cc(Cl)cc(Cl)c4)oc3c2)n1 [Compound 104]	B (B is ≥25 to <50%)
O=CN1CCC(OC(=O)c2ccc3nc(-c4cc(Cl)cc(Cl)c4)oc3c2)C1 (stereo not drawn) [Compound 150]	B (B is ≥25 to <50%)
Cn1cc(COC(=O)c2ccc3nc(-c4cc(Cl)cc(Cl)c4)oc3c2)cn1 [Compound 128]	C (C is ≥50 to <75%)
O=C(OCc1ccnnc1)c1ccc2nc(-c3cc(Cl)cc(Cl)c3)oc2c1 [Compound 135]	C (C is ≥50 to <75%)
